Results as given in the supplement of paper PMC10307832.

Columns and labels:
Experiment in all cases: relative viability (nuclei count vs DMSO), 5 days (fraction); higher = more cells survive
EPLC-272H = system: EPLC-272H
How it was run: (§1)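 Each reported value is a median over duplicate plates. It expresses relative viability: treated-well nuclei count divided by vehicle-well nuclei count. Lung cancer cell lines in 1536-well plates were dosed by pin tool a day after seeding, alone with one drug or with a fixed anchor-drug dose plus five library-drug doses (not always all listed) in √10 steps, and nuclei were counted after 5 days.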

H3255 = system: H3255
How it was run: as §1

HARA = system: HARA
How it was run: as §1

LC-2-ad = system: LC-2-ad
How it was run: as §1

LOU-NH91 = system: LOU-NH91
How it was run: as §1

NCI-H1650 = system: NCI-H1650
How it was run: as §1

NCI-H1651 = system: NCI-H1651
How it was run: as §1

NCI-H1975 = system: NCI-H1975
How it was run: as §1

NCI-H2009 = system: NCI-H2009
How it was run: as §1

NCI-H2023 = system: NCI-H2023
How it was run: as §1

NCI-H2085 = system: NCI-H2085
How it was run: as §1

NCI-H2087 = system: NCI-H2087
How it was run: as §1

NCI-H2170 = system: NCI-H2170
How it was run: as §1

NCI-H2228 = system: NCI-H2228
How it was run: as §1

NCI-H23 = system: NCI-H23
How it was run: as §1

NCI-H441 = system: NCI-H441
How it was run: as §1

NCI-H650 = system: NCI-H650
How it was run: as §1

NCI-H727 = system: NCI-H727
How it was run: as §1

NCI-H838 = system: NCI-H838
How it was run: as §1

PC-3 [JPC-3] = system: PC-3 [JPC-3]
How it was run: as §1

SW 1573 = system: SW 1573
How it was run: as §1

SW 900 = system: SW 900
How it was run: as §1

UMC-11 = system: UMC-11
How it was run: as §1

## CN1CCN(CCOc2cc(OC3CCOCC3)c3c(Nc4c(Cl)ccc5c4OCO5)ncnc3c2)CC1 [Saracatinib] + CC(=O)Nc1cccc(-n2c(=O)n(C3CC3)c(=O)c3c(Nc4ccc(I)cc4F)n(C)c(=O)c(C)c32)c1 [Trametinib] (partner 0.02 µM)
EPLC-272H; first compound 0.02 µM
  relative viability: 0.289
EPLC-272H; first compound 0.2 µM
  relative viability: 0.368
EPLC-272H; first compound 0.6325 µM
  relative viability: 0.283
EPLC-272H; first compound 2 µM
  relative viability: 0.287
H3255; first compound 0.02 µM
  relative viability: 0.636
H3255; first compound 0.2 µM
  relative viability: 0.665
H3255; first compound 0.6325 µM
  relative viability: 0.663
H3255; first compound 2 µM
  relative viability: 0.27
HARA; first compound 0.02 µM
  relative viability: 0.688
HARA; first compound 0.2 µM
  relative viability: 0.624
HARA; first compound 0.6325 µM
  relative viability: 0.836
HARA; first compound 2 µM
  relative viability: 0.344
LC-2-ad; first compound 0.02 µM
  relative viability: 0.9
LC-2-ad; first compound 0.2 µM
  relative viability: 0.858
LC-2-ad; first compound 0.6325 µM
  relative viability: 0.993
LC-2-ad; first compound 2 µM
  relative viability: 0.866
LOU-NH91; first compound 0.02 µM
  relative viability: 0.731
LOU-NH91; first compound 0.2 µM
  relative viability: 0.694
LOU-NH91; first compound 0.6325 µM
  relative viability: 0.758
LOU-NH91; first compound 2 µM
  relative viability: 0.636
NCI-H1650; first compound 0.02 µM
  relative viability: 0.528
NCI-H1650; first compound 0.2 µM
  relative viability: 0.438
NCI-H1650; first compound 0.6325 µM
  relative viability: 0.505
NCI-H1650; first compound 2 µM
  relative viability: 0.291
NCI-H1651; first compound 0.02 µM
  relative viability: 0.837
NCI-H1651; first compound 0.2 µM
  relative viability: 0.593
NCI-H1651; first compound 0.6325 µM
  relative viability: 0.907
NCI-H1651; first compound 2 µM
  relative viability: 0.877
NCI-H1975; first compound 0.02 µM
  relative viability: 0.37
NCI-H1975; first compound 0.2 µM
  relative viability: 0.412
NCI-H1975; first compound 0.6325 µM
  relative viability: 0.391
NCI-H1975; first compound 2 µM
  relative viability: 0.267
NCI-H2009; first compound 0.02 µM
  relative viability: 0.274
NCI-H2009; first compound 0.2 µM
  relative viability: 0.207
NCI-H2009; first compound 0.6325 µM
  relative viability: 0.209
NCI-H2009; first compound 2 µM
  relative viability: 0.175
NCI-H2023; first compound 0.02 µM
  relative viability: 0.52
NCI-H2023; first compound 0.2 µM
  relative viability: 0.269
NCI-H2023; first compound 0.6325 µM
  relative viability: 0.487
NCI-H2023; first compound 2 µM
  relative viability: 0.348
NCI-H2085; first compound 0.02 µM
  relative viability: 0.482
NCI-H2085; first compound 0.2 µM
  relative viability: 0.541
NCI-H2085; first compound 0.6325 µM
  relative viability: 0.497
NCI-H2085; first compound 2 µM
  relative viability: 0.404
NCI-H2087; first compound 0.02 µM
  relative viability: 0.24
NCI-H2087; first compound 0.2 µM
  relative viability: 0.142
NCI-H2087; first compound 0.6325 µM
  relative viability: 0.23
NCI-H2087; first compound 2 µM
  relative viability: 0.194
NCI-H2170; first compound 0.02 µM
  relative viability: 0.917
NCI-H2170; first compound 0.2 µM
  relative viability: 0.859
NCI-H2170; first compound 0.6325 µM
  relative viability: 0.916
NCI-H2170; first compound 2 µM
  relative viability: 0.862
NCI-H2228; first compound 0.02 µM
  relative viability: 0.616
NCI-H2228; first compound 0.2 µM
  relative viability: 0.425
NCI-H2228; first compound 0.6325 µM
  relative viability: 0.703
NCI-H2228; first compound 2 µM
  relative viability: 0.465
NCI-H23; first compound 0.02 µM
  relative viability: 0.344
NCI-H23; first compound 0.6325 µM
  relative viability: 0.351
NCI-H23; first compound 2 µM
  relative viability: 0.218
NCI-H441; first compound 0.02 µM
  relative viability: 0.514
NCI-H441; first compound 0.2 µM
  relative viability: 0.487
NCI-H441; first compound 0.6325 µM
  relative viability: 0.507
NCI-H441; first compound 2 µM
  relative viability: 0.339
NCI-H650; first compound 0.02 µM
  relative viability: 0.993
NCI-H650; first compound 0.2 µM
  relative viability: 0.877
NCI-H650; first compound 0.6325 µM
  relative viability: 1.03
NCI-H650; first compound 2 µM
  relative viability: 0.92
NCI-H727; first compound 0.02 µM
  relative viability: 0.369
NCI-H727; first compound 0.2 µM
  relative viability: 0.402
NCI-H727; first compound 0.6325 µM
  relative viability: 0.379
NCI-H727; first compound 2 µM
  relative viability: 0.308
NCI-H838; first compound 0.02 µM
  relative viability: 0.54
NCI-H838; first compound 0.2 µM
  relative viability: 0.497
NCI-H838; first compound 0.6325 µM
  relative viability: 0.47
NCI-H838; first compound 2 µM
  relative viability: 0.425
PC-3 [JPC-3]; first compound 0.02 µM
  relative viability: 0.758
PC-3 [JPC-3]; first compound 0.2 µM
  relative viability: 0.587
PC-3 [JPC-3]; first compound 0.6325 µM
  relative viability: 0.534
PC-3 [JPC-3]; first compound 2 µM
  relative viability: 0.494
SW 1573; first compound 0.02 µM
  relative viability: 0.507
SW 1573; first compound 0.2 µM
  relative viability: 0.598
SW 1573; first compound 0.6325 µM
  relative viability: 0.457
SW 1573; first compound 2 µM
  relative viability: 0.364
SW 900; first compound 0.02 µM
  relative viability: 0.624
SW 900; first compound 0.2 µM
  relative viability: 0.443
SW 900; first compound 0.6325 µM
  relative viability: 0.647
SW 900; first compound 2 µM
  relative viability: 0.529
UMC-11; first compound 0.02 µM
  relative viability: 0.763
UMC-11; first compound 0.2 µM
  relative viability: 0.586
UMC-11; first compound 0.6325 µM
  relative viability: 0.911
UMC-11; first compound 2 µM
  relative viability: 0.641
